Laboratory results from US20230398105A1, “TREATMENT REGIMENS FOR PARKINSON'S DISEASE” (BIAL - PORTELA & Cª, S.A., priority 2020, published 2023).

Columns and labels:
[1] = system: Parkinson's disease patients; conditions: BIPARK-I; patients with end-of-dose motor fluctuations; cited from earlier work
[2] = system: Parkinson's disease patients; assay: Pooled BIPARK-I and BIPARK-II: treatment-emergent adverse events in the safety set; type: in vivo, human
Text: The term “treatment-emergent adverse events” is defined as any event not present before exposure to the study drug or any event already present that worsens in either intensity or frequency after first intake of study drug until 2 weeks after last intake of the study drug.
(§1) The results of the two multi-centered double-blinded (DB) randomized placebo-controlled trials BIPARK-I (Ferreira et al., Lancet Neurol., 2016, 15, 154-65) and BIPARK-II (Lees et al., JAMA Neurol., 2017, 74, 197-206) were pooled together. Both clinical trials were performed to evaluate the efficacy and safety of opicapone in addition to levodopa-treated patients with moderate end-of-dose motor fluctuations. All patients had signs of end-of-dose deterioration for at least 4 weeks before screening, with a mean total awake off-time (state of akinesia or decreased mobility) of at least 1.5 hours, excluding morning akinesia. Eligible patients were randomized at baseline to the double-blind phase using a computer-generated scheme (administered by Cenduit, LLC) in a ratio of 1:1:1 to the addition of oral capsular opicapone, 25 mg/day or 50 mg/day, or matching placebo. The double-blind phase assessments occurred at 4-week intervals and the total duration of the double-blind phase could be 14 to 15 weeks. Full details of the inclusion and exclusion criteria and on study design are described in Ferreira et al., Lancet Neurol., 2016, 15, 154-65 and Lees et al., JAMA Neurol., 2017, 74, 197-206, which are incorporated herein by reference. Reductions in the daily dose (but not frequency) of levodopa were allowed between baseline and 3 to 4 weeks after baseline according to the clinical response but were not permitted thereafter.
(§2) Opicapone was synthesised as described in WO 2013/089573 and formulated into 25 or 50 mg capsules as described in WO 2010/114405. Study treatment (opicapone or matching placebo) was taken orally once daily in the evening at least 1 hour after the last daily dose of levodopa/DDCI (considered the bedtime dose).

[3] = system: Parkinson's disease patients; assay: Pooled BIPARK-I and BIPARK-II post-hoc analysis: change from baseline in absolute off-time; type: in vivo, human; conditions: after 14-15 weeks
Text: The term “absolute off-time” is the combined total daily of 30-minute periods spent in an “off” state. Conversely, the term “absolute on-time” is the combined total daily of 30-minute periods spent in an “on” state. Periods where the patient is asleep are excluded from either group.
The term “unpredictable motor fluctuations”, also known as “unpredictable on/off fluctuations” or “on/off phenomenon”, relates to the unpredictable re-emergence or worsening of symptoms at any time, such as severe troublesome dyskinesias, severe/unpredictable end-of-dose motor fluctuations, painful “off” dystonia and morning akinesia (Fabbri M. et al., Mov. Disord., 2018, 33, 1528-1539). Unpredictable motor fluctuations are unrelated to the timing of the next dose and may occur at any time during the day. […] Within the clinical trials analysed, unpredictable on/off fluctuations were defined as present if clinicians scored “NO” at the UPDRS item 36 (“Are “off” periods predictable?”), or “YES” in at least one of the following UPDRS items: 37 (“Are “off” periods unpredictable?”) and 38 (“Do “off” periods come on suddenly, within a few seconds?”).
as §1
(§3) Populations undergoing analysis included all randomized patients who took at least 1 dose of study medication and had at least 1 post-baseline off-time assessment. The post-hoc analysis described herein, analyzed Parkinson's disease patients with (“YES”) and without (“NO”) unpredictable on/off fluctuations.
(§4) The primary efficacy variable was the change from baseline in absolute off-time. As secondary end-point, the inventors analyzed the absolute on-time as well as the proportions of patients achieving at least a 1-hour reduction in absolute off-time and/or the proportions of patients achieving at least a 1-hour increase in absolute on-time at the end of the double-blind phase, defined as “responders”.
(§5) Changes from baseline were analysed using ANCOVA with treatment group included as fixed effect factor and the baseline scale score as a covariate. CMH-Test was used to assess differences between OPC dose levels and Placebo taking study into account as a factor.
as §2

[4] = system: Parkinson's disease patients; assay: Pooled BIPARK-I and BIPARK-II: OFF-time and ON-time responder rates (≥1 hour) at endpoint; type: in vivo, human
Text: The term “responders” is defined as patients achieving at least a 1-hour reduction in absolute off-time and/or the proportions of patients achieving at least a 1-hour increase in absolute on-time at the end of the double-blind phase of the trial.
as §1, §3, §4, §5, §2

[5] = 25 mg, NO: without unpredictable motor fluctuations, N = 143
[6] = 25 mg, YES: unpredictable motor fluctuations, N = 98
[7] = 50 mg, NO: without unpredictable motor fluctuations, N = 175
[8] = 50 mg, YES: unpredictable motor fluctuations, N = 87
[9] = 25 mg, NO: without unpredictable motor fluctuations
[10] = 25 mg, YES: with unpredictable motor fluctuations
[11] = 50 mg, NO: without unpredictable motor fluctuations
[12] = 50 mg, YES: with unpredictable motor fluctuations

In the case of `Cc1c(Cl)c(C)[n+]([O-])c(Cl)c1-c1noc(-c2cc(O)c(O)c([N+](=O)[O-])c2)n1` [opicapone, 2,5-dichloro-3-[5-(3,4-dihydroxy-5-nitrophenyl)-1,2,4-oxadiazol-3-yl]-4,6-dimethylpyridine 1-oxide], the “ability to reduce the time patients spent in the off state, vs. entacapone” value [1] is listed as “non-inferior”, the “ability to reduce the time patients spent in the off state, vs. placebo combined with levodopa/DCCI” value [1] is listed as “superior” and the “Incidence of Related Serious TEAEs” value [2, 5] is listed as 0 number (%). For the same molecule, the “Incidence of Serious TEAEs” value [2, 5] was 2 (0.8) number (%), the “Incidence of any TEAEs leading to Discontinuation” value (shortened to “Incidence of any TEAEs leading”) [2, 5] was 7 (2.9) number (%) and the “TEAE: Anxiety” value [2, 5] was 0 number (%). The “TEAE: Back pain” value [2, 5] was 4 (2.7) number (%), the “TEAE: Constipation” value [2, 5] was 9 (6.2) number (%) and the “TEAE: Dizziness” value [2, 5] was 7 (4.8) number (%). The “TEAE: Dry mouth” value [2, 5] was 8 (5.5) number (%), the “TEAE: Dyskinesias” value [2, 5] was 14 (9.6) number (%) and the “TEAE: Falls” value [2, 5] was 3 (2.1) number (%). For the same molecule, the “TEAE: Headache” value [2, 5] was 6 (4.1) number (%), the “TEAE: Hypertension” value [2, 5] was 6 (4.1) number (%) and the “TEAE: Insomnia” value [2, 5] was 11 (7.5) number (%). For the same molecule, the “TEAE: Nausea” value [2, 5] was 5 (3.4) number (%), the “TEAE: Parkinson's disease” value [2, 5] was 4 (2.7) number (%) and the “TEAE: Somnolence” value [2, 5] was 3 (2.1) number (%). The “TEAE: Urinary tract infection” value [2, 5] was 1 (0.7) number (%), the “TEAE: ↑CPK (Blood creatine phosphokinase)” value (from here on “TEAE: ↑CPK”) [2, 5] was 4 (2.7) number (%) and the “Incidence of Serious TEAEs” value [2, 6] was 3 (1.2) number (%). For the same molecule, the “Incidence of any TEAEs leading” value [2, 6] was 6 (2.5) number (%), the “TEAE: Anxiety” value [2, 6] was 5 (5.1) number (%) and the “TEAE: Back pain” value [2, 6] was 1 (1.0) number (%). For the same molecule, the “TEAE: Constipation” value [2, 6] was 3 (3.1) number (%), the “TEAE: Dizziness” value [2, 6] was 3 (3.1) number (%) and the “TEAE: Dry mouth” value [2, 6] was 8 (8.2) number (%). For the same molecule, the “TEAE: Dyskinesias” value [2, 6] was 25 (25.5) number (%), the “TEAE: Falls” value [2, 6] was 8 (8.2) number (%) and the “TEAE: Headache” value [2, 6] was 2 (2.0) number (%). For the same molecule, the “TEAE: Hypertension” value [2, 6] was 4 ( 4.1) number (%), the “TEAE: Insomnia” value [2, 6] was 6 (6.1) number (%) and the “TEAE: Nausea” value [2, 6] was 6 (6.1) number (%). For the same molecule, the “TEAE: Parkinson's disease” value [2, 6] was 7 (7.1) number (%), the “TEAE: Somnolence” value [2, 6] was 7 (7.1) number (%) and the “TEAE: Urinary tract infection” value [2, 6] was 3 (3.1) number (%). For the same molecule, the “TEAE: Weight decrease” value [2, 6] was 0 number (%), the “TEAE: ↑CPK” value [2, 6] was 3 (3.1) number (%) and the “Incidence of Serious TEAEs” value [2, 7] was 6 (2.3) number (%). The “Incidence of any TEAEs leading” value [2, 7] was 13 (4.9) number (%), the “TEAE: Back pain” value [2, 7] was 1 (0.6) number (%) and the “TEAE: Constipation” value [2, 7] was 10 (5.6) number (%). For the same molecule, the “TEAE: Dizziness” value [2, 7] was 5 (2.8) number (%), the “TEAE: Dry mouth” value [2, 7] was 5 (2.8) number (%) and the “TEAE: Dyskinesias” value [2, 7] was 35 (19.7) number (%). The “TEAE: Falls” value [2, 7] was 3 (1.7) number (%), the “TEAE: Headache” value [2, 7] was 7 (3.9) number (%) and the “TEAE: Hypertension” value [2, 7] was 7 (3.9) number (%). For the same molecule, the “TEAE: Insomnia” value [2, 7] was 6 (3.4) number (%), the “TEAE: Nausea” value [2, 7] was 6 (3.4) number (%) and the “TEAE: Parkinson's disease” value [2, 7] was 5 (2.8) number (%). The “TEAE: Somnolence” value [2, 7] was 3 (1.7) number (%), the “TEAE: Urinary tract infection” value [2, 7] was 9 (5.1) number (%) and the “TEAE: Weight decrease” value [2, 7] was 9 (5.1) number (%). For the same molecule, the “TEAE: ↑CPK” value [2, 7] was 12 (6.7) number (%), the “Incidence of Related Serious TEAEs” value [2, 8] was 1 (0.4) number (%) and the “Incidence of Serious TEAEs” value [2, 8] was 7 (2.6) number (%). The “Incidence of any TEAEs leading” value [2, 8] was 10 (3.8) number (%), the “TEAE: Anxiety” value [2, 8] was 3 (3.4) number (%) and the “TEAE: Back pain” value [2, 8] was 2 (2.3) number (%). For the same molecule, the “TEAE: Constipation” value [2, 8] was 7 (8.0) number (%), the “TEAE: Dizziness” value [2, 8] was 4 (4.6) number (%) and the “TEAE: Dry mouth” value [2, 8] was 3 (3.4) number (%). The “TEAE: Dyskinesias” value [2, 8] was 19 (21.8) number (%), the “TEAE: Falls” value [2, 8] was 5 (5.7) number (%) and the “TEAE: Headache” value [2, 8] was 3 (3.4) number (%). The “TEAE: Hypertension” value [2, 8] was 1 (1.1) number (%), the “TEAE: Insomnia” value [2, 8] was 3 (3.4) number (%) and the “TEAE: Nausea” value [2, 8] was 2 (2.3) number (%). The “TEAE: Parkinson's disease” value [2, 8] was 1 (1.1) number (%), the “TEAE: Somnolence” value [2, 8] was 2 (2.3) number (%) and the “TEAE: Urinary tract infection” value [2, 8] was 1 (1.1) number (%). The “TEAE: Weight decrease” value [2, 8] was 1.1 (0.4) number (%), the “TEAE: ↑CPK” value [2, 8] was 1 (1.1) number (%) and the “Safety in patients with unpredictable motor fluctuations” value ([2]; patients with unpredictable motor fluctuations) was “safe”. The “Absolute off-time, change from baseline vs. placebo” value ([3]; 25 mg vs. placebo, NO: patients without unpredictable motor fluctuations) was -20.4 min, the “Absolute off-time, change from baseline vs. placebo” value ([3]; 25 mg vs. placebo, Total patients) was -40.7 min and the “Absolute off-time, change from baseline vs. placebo” value ([3]; 25 mg vs. placebo, YES: patients with unpredictable motor fluctuations) was -61 min. The “Absolute off-time, change from baseline to end-point” value ([3]; 25 mg, NO: patients without unpredictable motor fluctuations) was -73.6 min, the “Absolute off-time, change from baseline to end-point” value ([3]; 25 mg, Total patients) was -98.7 min and the “Absolute off-time, change from baseline to end-point” value ([3]; 25 mg, YES: patients with unpredictable motor fluctuations) was -123.8 min. For the same molecule, the “Absolute off-time, change from baseline vs. placebo” value ([3]; 50 mg vs. placebo, Total patients) was -64 min, the “Absolute off-time, change from baseline to end-point” value ([3]; 50 mg, NO: patients without unpredictable motor fluctuations) was -104.7 min and the “Absolute off-time, change from baseline to end-point” value ([3]; 50 mg, Total patients) was -122 min. The “Absolute off-time, change from baseline to end-point” value ([3]; 50 mg, YES: patients with unpredictable motor fluctuations) was -139.3 min, the “responders, off-time reduced (≥1 hour)” value [4, 9] was 58.7% and the “responders, on-time increased (≥1 hour)” value [4, 9] was 53.8%. For the same molecule, the “responders, off-time reduced (≥1 hour)” value [4, 10] was 65.3%, the “responders, on-time increased (≥1 hour)” value [4, 10] was 69.4% and the “responders, off-time reduced (≥1 hour)” value [4, 11] was 68.6%. The “responders, on-time increased (≥1 hour)” value [4, 11] was 61.7%, the “responders, off-time reduced (≥1 hour)” value [4, 12] was 65.5% and the “responders, on-time increased (≥1 hour)” value [4, 12] was 66.7%.
